ChEMBL document CHEMBL5506050, “Discovery of Oral AMP-Activated Protein Kinase Activators for Treating Hyperlipidemia” (J Med Chem, 2024)
Calls of active or inactive are those of the source. The rule behind the calls is not given here.

Experiments:
Mus musculus [1] = test: Downregulation of Syvn1 mRNA level in liver of high-fat diet-fed C57BL/6 mouse model at 200 mg/kg, po for 4 weeks by GO analysis; assay type: functional, organism-based
Mus musculus [2] = test: Effect on Ctgf mRNA level in liver of diet-induced obese C57BL/6 mouse model harboring AMPKalpha LS-/- at 200 mg/kg, po for 4 weeks by GO analysis; assay type: functional, organism-based
Syrian golden hamster [3] = test: Lipid lowering effect on high-fat diet-fed golden hamster harboring LDLR-/- assessed as decrease in serum LDL-C level at 200 mg/kg, po qd administered via gavage measured after 8 weeks relative to control; assay type: functional, Mesocricetus auratus; design: scale not given: the % may be the effect or the level left
Mus musculus [4] = test: Downregulation of Ctgf mRNA level in liver of high-fat diet-fed C57BL/6 mouse model at 200 mg/kg, po for 4 weeks by GO analysis; assay type: functional, organism-based
Syrian golden hamster [5] = test: Lipid lowering effect on high-fat diet-fed golden hamster assessed as decrease in serum LDL-C level at 50 mg/kg, po qd administered via gavage measured after 4 weeks relative to control; assay type: functional, Mesocricetus auratus; design: scale not given: the % may be the effect or the level left
[6] = Acute toxicity in golden hamster assessed as animal survival at 20 g/Kg, po measured for 14 days; assay type: organism-based, Mesocricetus auratus; conditions: in vivo, 20000 mg/kg, 336 h, time 14 day
[7] = Apparent permeability across apical to basal side in human Caco-2 cells at 21 uM incubated for 2 hrs by LC-MS/MS analysis; assay type: ADME, cell-based
Syrian golden hamster [8] = test: Lipid lowering effect on high-fat diet-fed golden hamster assessed as decrease in serum LDL-C level at 200 mg/kg, po qd administered via gavage measured after 4 weeks relative to control; assay type: functional, Mesocricetus auratus; design: scale not given: the % may be the effect or the level left
Mus musculus [9] = test: Downregulation of Ptafr mRNA level in liver of high-fat diet-fed C57BL/6 mouse model at 200 mg/kg, po for 4 weeks by GO analysis; assay type: functional, organism-based
[10] = Stability in human liver microsomes assessed as drug metabolism at 1 uM measured after 5 mins in presence of NADPH by LC-MS/MS analysis; assay type: ADME, Microsome; conditions: read-out: Drug metabolism
Mus musculus [11] = test: Effect on Gadd45b mRNA level in liver of diet-induced obese C57BL/6 mouse model harboring AMPKalpha LS-/- at 200 mg/kg, po for 4 weeks by GO analysis; assay type: functional, organism-based
Mus musculus [12] = test: Upregulation of Gadd45b mRNA level in liver of high-fat diet-fed C57BL/6 mouse model at 200 mg/kg, po for 4 weeks by GO analysis; assay type: functional, organism-based
Syrian golden hamster [13] = test: Lipid lowering effect on high-fat diet-fed golden hamster assessed as decrease in serum TC level at 6 mg/kg, po qd administered via gavage measured after 4 weeks relative to control; assay type: functional, Mesocricetus auratus; design: scale not given: the % may be the effect or the level left
Rhesus monkey = test: Lipid lowering effect in Rhesus monkey assessed as decrease in blood LDL-C level at 35 mg/kg, NG qd treated for 35 days followed by drug washout for 14 days relative to control; assay type: functional, Macaca mulatta; design: scale not given: the % may be the effect or the level left; conditions: time 35 day
Mus musculus [14] = test: Downregulation of Aacas mRNA level in liver of high-fat diet-fed C57BL/6 mouse model at 200 mg/kg, po for 4 weeks by GO analysis; assay type: functional, organism-based
[15] = Tmax in male Rhesus monkey at 70 mg/kg, po or 7 mg/kg, iv measured for 36 hrs by LC-tandem MS analysis; assay type: ADME, organism-based, Macaca mulatta; conditions: in vivo
Mus musculus [16] = test: Effect on Pcsk9 mRNA level in liver of diet-induced obese C57BL/6 mouse model harboring AMPKalpha LS-/- at 200 mg/kg, po for 4 weeks by GO analysis; assay type: functional, organism-based
[17] = Acute toxicity in golden hamster assessed as intense toxic response at 20 g/Kg, po measured for 14 days; assay type: organism-based, Mesocricetus auratus; conditions: in vivo, 20000 mg/kg, 336 h, time 14 day
[18] = Stability in human Caco-2 cells assessed as compound remaining at 10 ug/ml measured after 3 hrs by LC-MS/MS analysis; assay type: ADME, cell-based; conditions: at 10 µg/mL, read-out: Stability
[19] = AUC (0 to t) in male Rhesus monkey at 70 mg/kg, po or 7 mg/kg, iv measured for 36 hrs by LC-tandem MS analysis; assay type: ADME, organism-based, Macaca mulatta; conditions: in vivo
Mus musculus [20] = test: Lipid lowering effect on high-fat diet-fed Kunming mouse assessed as serum total cholesterol level at 50 mg/kg, po qd via gavage for 7 days consecutively (reference value: 159.3 +/- 11.5 mg/dl); assay type: functional; conditions: time 7 day
[21] = target: AMP-activated protein kinase, AMPK; test: Binding affinity to recombinant AMPK (unknown origin)-immobilized in CM5 sensor chip assessed as dissociation constant by SPR analysis; assay type: protein-complex assay, Homo sapiens
Syrian golden hamster [22] = test: Lipid lowering effect on high-fat diet-fed golden hamster assessed as decrease in TG level in liver at 100 to 200 mg/kg, po qd administered via gavage measured after 4 weeks; assay type: functional, organism-based; conditions: Mesocricetus auratus, dose 100-200 mg/kg
Mus musculus [23] = test: Effect on Pparg mRNA level in liver of diet-induced obese C57BL/6 mouse model harboring AMPKalpha LS-/- at 200 mg/kg, po for 4 weeks by GO analysis; assay type: functional, organism-based
Mus musculus [24] = test: Effect on Mogat1 mRNA level in liver of diet-induced obese C57BL/6 mouse model harboring AMPKalpha LS-/- at 200 mg/kg, po for 4 weeks by GO analysis; assay type: functional, organism-based
Syrian golden hamster [25] = test: Effect on serum TG level in high-fat diet-fed golden hamster harboring LDLR-/- at 50 to 200 mg/kg, po qd administered via gavage measured after 8 weeks; assay type: functional, organism-based; conditions: Mesocricetus auratus, dose 50-200 mg/kg
Syrian golden hamster [26] = test: Lipid lowering effect on high-fat diet-fed golden hamster harboring LDLR-/- assessed as decrease in serum TC level at 200 mg/kg, po qd administered via gavage measured after 8 weeks relative to control; assay type: functional, Mesocricetus auratus; design: scale not given: the % may be the effect or the level left
Mus musculus [27] = test: Downregulation of Hspa5 mRNA level in liver of high-fat diet-fed C57BL/6 mouse model at 200 mg/kg, po for 4 weeks by GO analysis; assay type: functional, organism-based
Mus musculus [28] = test: Downregulation of Dnajb9 mRNA level in liver of high-fat diet-fed C57BL/6 mouse model at 200 mg/kg, po for 4 weeks by GO analysis; assay type: functional, organism-based
Syrian golden hamster [29] = test: Effect on adipose tissue weight in high-fat diet-fed golden hamster at 50 to 200 mg/kg, po qd administered via gavage measured after 4 weeks; assay type: functional, organism-based; conditions: Mesocricetus auratus, dose 50-200 mg/kg
Mus musculus [30] = test: Effect on Syvn1 mRNA level in liver of diet-induced obese C57BL/6 mouse model harboring AMPKalpha LS-/- at 200 mg/kg, po for 4 weeks by GO analysis; assay type: functional, organism-based
Mus musculus [31] = test: Effect on Sdf2l1 mRNA level in liver of diet-induced obese C57BL/6 mouse model harboring AMPKalpha LS-/- at 200 mg/kg, po for 4 weeks by GO analysis; assay type: functional, organism-based
Syrian golden hamster [32] = test: Lipid lowering effect on high-fat diet-fed golden hamster assessed as decrease in serum TG level at 6 mg/kg, po qd administered via gavage measured after 4 weeks relative to control; assay type: functional, Mesocricetus auratus; design: scale not given: the % may be the effect or the level left
[33] = Oral bioavailability in male Rhesus monkey at 70 mg/kg measured for 36 hrs by LC-tandem MS analysis; assay type: ADME, organism-based, Macaca mulatta; conditions: in vivo
[34] = Efflux ratio of apparent permeability across basal to apical side over apical to basal side in human Caco-2 cells at 21 uM incubated for 2 hrs by LC-MS/MS analysis; assay type: ADME, cell-based
Erythrocyte = test: In vivo induction of AMPK phosphorylation in erythrocytes of human at 2000 mg measured after 5 to 12 hrs by ELISA; assay type: functional, organism-based; conditions: time 5-12 hrs

## CC(=O)OC[C@H]1O[C@@H](n2cnc3c(Nc4cccc(O)c4)ncnc32)[C@H](OC(C)=O)[C@@H]1OC(C)=O
Mus musculus [1]
  Activity: Active
Mus musculus [2]
  Activity: inactive
Syrian golden hamster [3]
  Activity: 43.1%
Mus musculus [4]
  Activity: Active
Syrian golden hamster [5]
  Activity: 10.5%
[6]
  Activity: Non-Toxic
[7]
  Papp A→B at 2 h, 21 µM: 8 ×10⁻⁶ cm/s
Syrian golden hamster [8]
  Activity: 42%
Mus musculus [9]
  Activity: Active
[10]
  metabolised at 5 min, 1 µM: > 80%
Mus musculus [11]
  Activity: inactive
Mus musculus [12]
  Activity: Active
Syrian golden hamster [13]
  Activity: 24.8%
Rhesus monkey
  Activity: 11.93%
Mus musculus [14]
  Activity: Active
[15]
  Tmax: 1.5 h
Mus musculus [16]
  Activity: inactive
[17]
  Activity: Non-Toxic
[18]
  remaining at 3 h, 10 ug/ml: 52%
[19]
  AUC(0-t) at 36 h: 109 ng·h/mL
Mus musculus [20]
  Activity: 151.7 mg/dL
[21]
  Kd: 17.9 µM
Syrian golden hamster [22]
  Activity: Active
Mus musculus [23]
  Activity: inactive
Mus musculus [24]
  Activity: inactive
Syrian golden hamster [25]
  Activity: inactive
Syrian golden hamster [26]
  Activity: 19%
Mus musculus [27]
  Activity: Active
Mus musculus [28]
  Activity: Active
Syrian golden hamster [29]
  Activity: inactive
Mus musculus [30]
  Activity: inactive
Mus musculus [31]
  Activity: inactive
Syrian golden hamster [32]
  Activity: 52.8%
[33]
  bioavailability: 3.04%
[34]
  efflux ratio at 2 h, 21 µM: 1.9
Erythrocyte
  Activity: Active
